Data: ChEMBL document CHEMBL1201862, “PubChem BioAssay data set” (2004)
Active and inactive are the calls of the source.

How the values were obtained:
[1] = growth suppression of beta-catenin-knockout colon cells, dose response, cell-based, HCT116, human colon tumor (AID 1045); type: functional;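 further: HCT116 colon tumor cells with beta catenin knocked out; cells exposed to compound for 60 hours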
[2] = growth suppression of PTEN-null colon cells, dose response, cell-based, HCT116 PTEN knockout (AID 1047); type: functional;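 further: HCT116 colon tumor cells with PTEN knocked out; cells exposed to compound for 60 hours before readout; potency for loss of cell viability measured by luminescence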
Cytochrome P450 3A4 = Cytochrome P450 3A4 (Homo sapiens, UniProt P08684);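 further: CYP3A4 tested as one member of a cytochrome P450 panel screen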
Cytochrome P450 2C19 = Cytochrome P450 2C19 (Homo sapiens, UniProt P33261); test: Cytochrome panel assay with activity outcomes. Panel member name: p450-cyp2c19 Compounds with AC50 equal or less than 10 uM are considered active; type: functional; conditions: read-out: AC50
Cytochrome P450 2C9 = Cytochrome P450 2C9 (Homo sapiens, UniProt P11712)
Cytochrome P450 2D6 = Cytochrome P450 2D6 (Homo sapiens, UniProt P10635);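 further: CYP2D6 member of a cytochrome P450 panel assay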
[3] = inhibitors of SNCA 5'UTR-driven reporter translation, confirmation, H4 neuroglioma cells, luminescence (AID 1988); type: functional, cell-based
[4] = tested on: Streptococcus sp. 'group A'; test: growth inhibition of control SK(-) GAS strain, dose response, counter-screen for streptokinase expression inhibitor project, luminescence, kanamycin, BacTiterGlo, confirmation (AID 1900); type: functional, organism-based
BJ [5] = test: cytotoxicity toward BJ-TERT fibroblasts, dose response, cell-based, RAS-independent, luminescence (AID 1933); type: functional; conditions: Homo sapiens
[6] = Luminescence Cell-Based Dose Response HTS to Identify Inhibitors of 5'UTR Stem-Loop Driven Prion Protein mRNA Translation in H4 Neuroglioblastoma Cells. [Related pubchem assays: 1827 (Project Summary), 1813 (Primary HTS)]; type: functional
Streptokinase A = biological target: T1, Streptokinase A (Streptococcus pyogenes serotype M1, UniProt P10520); test: S. pyogenes streptokinase expression inhibitors, potency, dose response, plasminogen activation absorbance, OD405 (AID 1914); type: functional, Streptococcus pyogenes M1 GAS;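 further: secreted streptokinase activity via plasminogen activation per viability signal from cell pellet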
T1 sequence (P10520 whole entry): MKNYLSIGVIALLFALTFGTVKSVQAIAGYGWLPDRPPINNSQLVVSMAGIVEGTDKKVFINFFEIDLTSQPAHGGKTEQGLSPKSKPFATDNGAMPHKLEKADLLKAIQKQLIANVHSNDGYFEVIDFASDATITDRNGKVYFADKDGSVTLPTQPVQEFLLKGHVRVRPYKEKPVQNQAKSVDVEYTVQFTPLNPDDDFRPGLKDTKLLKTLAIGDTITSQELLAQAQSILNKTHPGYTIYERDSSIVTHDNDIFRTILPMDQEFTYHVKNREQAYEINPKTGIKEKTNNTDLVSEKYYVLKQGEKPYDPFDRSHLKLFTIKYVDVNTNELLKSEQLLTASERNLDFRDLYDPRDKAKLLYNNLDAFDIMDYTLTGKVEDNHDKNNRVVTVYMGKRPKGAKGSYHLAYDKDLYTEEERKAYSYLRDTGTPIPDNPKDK

[7] = cytotoxicity toward DRD oncogenic fibroblasts, dose response, cell-based, non-viral oncogenic, luminescence (AID 1934); type: functional; conditions: Homo sapiens
[8] = inhibitors of firefly luciferase expression or activity, dose response, H4 neuroglioma cells, luminescence (AID 1990); type: functional, cell-based
BJ [9] = test: cytotoxicity toward BJ-TERT-LT-ST fibroblasts, dose response, cell-based, RAS-independent, luminescence (AID 1935); type: functional; conditions: Homo sapiens;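 further: BJ fibroblasts immortalized with TERT plus LT and ST oncogenes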
Streptococcus = test: Group A Streptococcus viability loss, dose response, counter-screen for streptokinase expression inhibitor project, luminescence, BacTiterGlo (AID 1915); type: functional, organism-based;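 further: potency for reduction of bacterial viability or growth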
BJ [10] = test: cells; type: functional, cell-based; conditions: Homo sapiens
[11] = biological target: T2, Heat shock factor protein 1 (Mus musculus, UniProt P38532); test: inhibition of MG132-induced HSE-luciferase signal, confirmation, cell-based, NIH3T3, luminescence, dose retest (AID 2382); type: functional;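 further: NIH3T3 fibroblasts with HSF1-driven luciferase reporter stressed by proteasome inhibitor MG132; luminescence from HSF1-driven luciferase expression after 8 hours of MG132 stress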
T2 sequence (P38532 whole entry): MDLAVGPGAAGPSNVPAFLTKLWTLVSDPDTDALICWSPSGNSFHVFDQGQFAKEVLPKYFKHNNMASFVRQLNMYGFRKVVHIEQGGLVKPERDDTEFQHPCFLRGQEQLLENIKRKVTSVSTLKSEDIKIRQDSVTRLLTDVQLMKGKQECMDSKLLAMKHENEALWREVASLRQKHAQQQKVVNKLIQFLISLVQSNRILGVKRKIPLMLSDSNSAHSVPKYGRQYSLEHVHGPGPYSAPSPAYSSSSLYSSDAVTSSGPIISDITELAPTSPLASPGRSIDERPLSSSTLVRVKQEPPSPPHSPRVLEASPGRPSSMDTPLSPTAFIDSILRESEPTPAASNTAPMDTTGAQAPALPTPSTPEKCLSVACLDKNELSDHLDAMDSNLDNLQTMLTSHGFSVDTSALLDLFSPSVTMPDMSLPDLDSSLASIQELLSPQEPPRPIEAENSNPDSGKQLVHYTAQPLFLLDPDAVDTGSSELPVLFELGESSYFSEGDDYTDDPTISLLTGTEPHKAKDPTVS

[12] = inhibitors of intracellular T. cruzi replication, confirmation, NIH3T3 host cells, beta-gal luminescence (AID 2044); type: functional, cell-based;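 further: intracellular parasites grown in NIH/3T3 mouse fibroblasts as host cells; luminescent beta-galactosidase reporter signal from transgenic T. cruzi replicating inside host cells; inhibitors lower the luminescence signal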
[13] = cytotoxicity toward NIH3T3 fibroblasts, dose response, counter-screen, cell-based, ATP luminescence, mouse fibroblasts (AID 2010); type: functional;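 further: cells exposed to compound for about 90 hours before reading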
Leucine aminopeptidase = biological target: T3, Leucine aminopeptidase (Plasmodium falciparum 3D7, UniProt Q8IL11); test: P. falciparum M17LAP inhibitors, primary screen, biochemical, fluorogenic H-Leu-NHMec substrate, 1536-well (AID 1619); type: functional
T3 sequence (Q8IL11 whole entry): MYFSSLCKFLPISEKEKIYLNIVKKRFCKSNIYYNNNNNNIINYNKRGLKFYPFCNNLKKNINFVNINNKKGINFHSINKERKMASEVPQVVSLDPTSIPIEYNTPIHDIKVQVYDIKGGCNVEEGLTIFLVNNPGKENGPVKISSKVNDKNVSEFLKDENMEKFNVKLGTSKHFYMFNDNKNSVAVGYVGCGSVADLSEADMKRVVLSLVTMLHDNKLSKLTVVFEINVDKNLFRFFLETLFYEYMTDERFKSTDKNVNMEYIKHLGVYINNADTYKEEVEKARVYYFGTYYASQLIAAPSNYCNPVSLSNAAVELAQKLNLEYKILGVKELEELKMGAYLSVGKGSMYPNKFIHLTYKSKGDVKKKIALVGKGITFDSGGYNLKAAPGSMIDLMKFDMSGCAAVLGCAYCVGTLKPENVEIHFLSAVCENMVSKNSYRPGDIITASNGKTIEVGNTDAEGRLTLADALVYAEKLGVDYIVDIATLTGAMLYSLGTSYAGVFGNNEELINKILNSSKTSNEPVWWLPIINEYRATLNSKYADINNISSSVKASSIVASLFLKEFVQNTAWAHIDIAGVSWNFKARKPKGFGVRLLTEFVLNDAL

Paired box protein Pax-8 = Paired box protein Pax-8 (Homo sapiens, UniProt Q06710); test: inhibitors of PAX8-driven TPO luciferase reporter, dose response, RMG-I cells, cherry-pick (AID 687027); type: functional, cell-based;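 further: luciferase reporter driven by Pax8 target thyroperoxidase promoter measured by SteadyGlo luminescence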
[14] = Luminescence Cell-Based Dose Retest to Confirm Inhibitors of Cancer Stem Cells. [Related pubchem assays (depositor defined):AID2717, AID2721]; type: functional; conditions: Homo sapiens

Chain of Cytochrome P450 3A4 (P08684 whole entry): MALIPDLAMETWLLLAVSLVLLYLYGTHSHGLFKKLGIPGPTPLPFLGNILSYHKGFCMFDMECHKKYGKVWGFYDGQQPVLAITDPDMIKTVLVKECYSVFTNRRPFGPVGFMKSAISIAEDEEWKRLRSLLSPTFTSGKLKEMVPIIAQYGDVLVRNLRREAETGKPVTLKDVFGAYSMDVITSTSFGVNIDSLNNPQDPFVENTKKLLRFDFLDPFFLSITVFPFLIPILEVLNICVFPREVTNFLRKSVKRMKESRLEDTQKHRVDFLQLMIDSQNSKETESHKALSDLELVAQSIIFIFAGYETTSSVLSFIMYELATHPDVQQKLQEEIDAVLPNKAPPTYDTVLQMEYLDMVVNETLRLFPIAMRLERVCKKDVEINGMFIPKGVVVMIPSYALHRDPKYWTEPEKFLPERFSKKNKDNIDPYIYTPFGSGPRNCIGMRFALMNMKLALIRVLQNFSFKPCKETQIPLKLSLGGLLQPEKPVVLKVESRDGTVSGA
Chain of Cytochrome P450 2C9 (P11712 whole entry): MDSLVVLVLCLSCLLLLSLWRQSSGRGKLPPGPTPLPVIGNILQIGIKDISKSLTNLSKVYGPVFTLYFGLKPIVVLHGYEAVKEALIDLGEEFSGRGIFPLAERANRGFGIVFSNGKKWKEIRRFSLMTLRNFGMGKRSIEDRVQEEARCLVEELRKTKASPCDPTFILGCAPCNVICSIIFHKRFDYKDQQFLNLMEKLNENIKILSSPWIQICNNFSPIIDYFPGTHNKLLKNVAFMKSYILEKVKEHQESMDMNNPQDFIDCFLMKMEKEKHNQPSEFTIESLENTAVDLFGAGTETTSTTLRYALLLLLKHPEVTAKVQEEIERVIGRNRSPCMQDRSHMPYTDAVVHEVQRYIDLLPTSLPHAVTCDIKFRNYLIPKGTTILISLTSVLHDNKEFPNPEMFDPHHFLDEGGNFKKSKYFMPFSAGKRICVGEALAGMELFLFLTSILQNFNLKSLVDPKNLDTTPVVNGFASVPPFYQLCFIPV
Chain of Cytochrome P450 2C19 (P33261 whole entry): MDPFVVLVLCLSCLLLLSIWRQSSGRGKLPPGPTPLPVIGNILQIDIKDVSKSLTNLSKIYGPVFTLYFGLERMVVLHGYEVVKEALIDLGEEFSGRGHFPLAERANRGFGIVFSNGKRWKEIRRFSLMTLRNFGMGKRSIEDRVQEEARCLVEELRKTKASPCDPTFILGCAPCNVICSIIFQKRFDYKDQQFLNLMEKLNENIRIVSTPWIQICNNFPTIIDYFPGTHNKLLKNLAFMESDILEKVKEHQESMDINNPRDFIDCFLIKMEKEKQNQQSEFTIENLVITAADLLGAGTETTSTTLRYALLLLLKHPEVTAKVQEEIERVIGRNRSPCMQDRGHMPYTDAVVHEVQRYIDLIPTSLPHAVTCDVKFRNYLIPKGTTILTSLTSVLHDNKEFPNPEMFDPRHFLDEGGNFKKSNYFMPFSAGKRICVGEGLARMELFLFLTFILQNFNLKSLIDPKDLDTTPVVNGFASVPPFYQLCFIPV
Chain of Paired box protein Pax-8 (Q06710 whole entry): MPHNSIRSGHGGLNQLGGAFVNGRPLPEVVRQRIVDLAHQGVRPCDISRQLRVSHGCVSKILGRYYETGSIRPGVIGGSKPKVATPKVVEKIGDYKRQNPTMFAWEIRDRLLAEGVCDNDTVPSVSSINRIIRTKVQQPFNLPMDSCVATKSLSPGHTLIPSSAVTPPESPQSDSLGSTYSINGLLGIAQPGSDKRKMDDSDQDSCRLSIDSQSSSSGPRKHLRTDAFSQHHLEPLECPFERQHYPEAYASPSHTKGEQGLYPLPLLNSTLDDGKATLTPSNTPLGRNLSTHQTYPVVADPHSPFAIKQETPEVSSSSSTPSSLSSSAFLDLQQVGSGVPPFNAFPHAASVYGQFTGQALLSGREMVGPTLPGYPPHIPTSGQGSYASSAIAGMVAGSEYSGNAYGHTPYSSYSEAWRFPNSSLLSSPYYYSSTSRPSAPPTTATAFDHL
Chain of Cytochrome P450 2D6 (P10635 whole entry): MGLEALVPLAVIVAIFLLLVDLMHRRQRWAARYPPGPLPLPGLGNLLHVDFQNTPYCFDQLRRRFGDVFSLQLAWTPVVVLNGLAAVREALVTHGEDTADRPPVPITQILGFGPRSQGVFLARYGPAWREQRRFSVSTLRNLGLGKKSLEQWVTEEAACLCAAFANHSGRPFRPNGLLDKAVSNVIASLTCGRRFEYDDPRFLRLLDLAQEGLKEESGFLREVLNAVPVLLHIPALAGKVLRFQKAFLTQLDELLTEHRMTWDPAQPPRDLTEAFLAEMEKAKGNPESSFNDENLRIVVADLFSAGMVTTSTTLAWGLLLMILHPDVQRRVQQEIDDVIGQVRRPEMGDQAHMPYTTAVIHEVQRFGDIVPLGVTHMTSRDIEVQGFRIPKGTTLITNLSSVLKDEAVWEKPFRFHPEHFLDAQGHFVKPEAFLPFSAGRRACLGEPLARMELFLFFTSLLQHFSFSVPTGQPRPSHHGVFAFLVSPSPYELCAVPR

Question: With `S=C(Nc1ccccn1)c1ccccn1` as the compound, how does the EC50 [1] read?
Answer: Its EC50 is 5.37 µM (active).

Question: What about the EC50 [2] of the same compound?
Answer: The EC50 was 5.48 µM (active).

Question: For `C[C@H](NC[C@H](O)CP(=O)(O)CC1CCCCC1)c1ccc(Cl)c(Cl)c1`, which AC50 (Cytochrome P450 3A4) is on record?
Answer: Its AC50 is 31.6 µM (inconclusive).

Question: Which AC50 (Cytochrome P450 3A4) does the source give for `C[C@@H]1CCCN(CP(=O)(c2ccccc2)c2ccccc2)C1` here?
Answer: The AC50 was 3.98 µM (inconclusive).

Question: What about the AC50 (Cytochrome P450 2C19) of the same compound?
Answer: The AC50 was 0.126 µM (inconclusive).

Question: For `COC(=O)[C@H]1C[C@@H]1[C@H](NC(=O)OCc1ccccc1)c1ccccc1`, which AC50 (Cytochrome P450 3A4) is on record?
Answer: The AC50 was 25.1 µM (inconclusive).

Question: With `COC(=O)N1CCC[C@@]2(CCN(C(=O)Nc3ccc(OC)cc3)C2)C1` as the compound, how does the AC50 (Cytochrome P450 2C9) read?
Answer: Its AC50 is 20 µM (inconclusive).

Question: What about the AC50 (Cytochrome P450 3A4) of the same compound?
Answer: The AC50 was 10 µM (inconclusive).

Question: What does the source list for `O=C(c1ccncc1)N1CCC[C@@]2(CCN(c3ncccn3)C2)C1`?
Answer: AC50 (Cytochrome P450 2C9): 20 µM (inconclusive); AC50 (Cytochrome P450 3A4): 15.8 µM (inconclusive); AC50 (Cytochrome P450 2C19): 25.1 µM (inconclusive)

Question: With `CCCCCCN1C=CC(=C/C=C(\C#N)C(=O)OCC)C=C1` as the compound, how does the AC50 (Cytochrome P450 2D6) read?
Answer: The AC50 was 14.1 µM (inconclusive).

Question: And the AC50 (Cytochrome P450 3A4)?
Answer: Its AC50 is 15.8 µM (inconclusive).

Question: What does the source list for `CSc1nc(Oc2ccc3ccccc3c2)c2sccc2n1`?
Answer: EC50 [3]: 8.16 µM (active); EC50 [4]: 34.3 µM (active); EC50 (BJ [5]): 12.5 µM (active); EC50 [6]: > 120 µM (not active); EC50 (Streptokinase A): 39.1 µM (active); EC50 [7]: 12.8 µM (inconclusive); EC50 [8]: 12.9 µM (active); EC50 (BJ [9]): 13.6 µM (inconclusive); EC50 (Streptococcus): > 150 µM (not active); EC50 (BJ [10]): 52.3 µM (active)

Question: What does the source list for `COc1ccc(NC(C)=O)cc1NC(=O)CN1CCN(CC(=O)Nc2ccccc2Cl)CC1`?
Answer: AC50 (Cytochrome P450 2C9): 20 µM (inconclusive); EC50 [11]: > 195 µM (not active)

Question: With `O=C(c1ccccc1)c1ccc(NCCCn2ccnc2)c([N+](=O)[O-])c1` as the compound, how does the EC50 (BJ [5]) read?
Answer: Its EC50 is > 150 µM (not active).

Question: What about the EC50 [12] of the same compound?
Answer: The EC50 was 1.8 µM (active).

Question: What about the EC50 [7] of the same compound?
Answer: The EC50 was 147 µM (active).

Question: What about the EC50 [13] of the same compound?
Answer: Its EC50 is > 60 µM (not active).

Question: What about the EC50 (BJ [9]) of the same compound?
Answer: The EC50 was > 150 µM (inconclusive).

Question: And the EC50 (BJ [10])?
Answer: Its EC50 is > 150 µM (not active).

Question: For `CCC(CC)C(=O)Nc1ccc(C)c(O)c1`, which AC50 (Cytochrome P450 3A4) is on record?
Answer: The AC50 was 4.47 µM (inconclusive).

Question: For `CCn1c2ccccc2c2cc(NC(=O)CNCc3ccccc3OC)ccc21`, which EC50 (BJ [5]) is on record?
Answer: The EC50 was 7.54 µM (inconclusive).

Question: What about the EC50 [7] of the same compound?
Answer: The EC50 was 4.21 µM (active).

Question: And the EC50 (BJ [9])?
Answer: The EC50 was 41.6 µM (inconclusive).

Question: And the EC50 (BJ [10])?
Answer: Its EC50 is > 150 µM (inconclusive).

Question: For `Cc1cccc(C)c1Nc1nnc(SC(C)C(=O)Nc2c(C)n(C)n(-c3ccccc3)c2=O)s1` (stereo unspecified), which IC50 (Leucine aminopeptidase) is on record?
Answer: The IC50 was 13.5 µM (active).

Question: Which EC50 [1] does the source give for `COc1ccc(-c2cc(-c3ccccc3)c(C#N)c(S(C)(=O)=O)n2)cc1` here?
Answer: The EC50 was 5.07 µM (active).

Question: And the AC50 (Paired box protein Pax-8)?
Answer: The AC50 was 6.98 µM (active).

Question: And the EC50 [2]?
Answer: Its EC50 is 7.91 µM (active).

Question: With `CCOc1cc(CNCCO)cc(Br)c1OCc1ccc(Cl)cc1Cl` as the compound, how does the EC50 [1] read?
Answer: Its EC50 is 4.69 µM (active).

Question: What about the EC50 [2] of the same compound?
Answer: Its EC50 is 4.89 µM (active).

Question: And the AC50 [14]?
Answer: Its AC50 is 6.75 µM (active).

Question: With `C=CCn1c(=S)[nH]c2sc3c(c2c1=O)CCC3` as the compound, how does the IC50 (Leucine aminopeptidase) read?
Answer: The IC50 was 46.2 µM (active).

Question: With `O=C(O)c1cccc(CN2C(=O)SC(Nc3ccccc3)C2=O)c1` (stereo unspecified) as the compound, how does the IC50 (Leucine aminopeptidase) read?
Answer: Its IC50 is 34.3 µM (active).

Question: Which AC50 (Cytochrome P450 3A4) does the source give for `Cc1noc(C)c1C(=O)N1CCC2(CCCN(Cc3ccccc3)C2)CC1` here?
Answer: The AC50 was 25.1 µM (inconclusive).
